Measurements: US20170162898A1, “Quaternary Ammonium Halides With Ether Functional Groups For Use As Battery Electrolytes” (Albemarle Corporation, priority 2014, published 2017)
“And” between values parts separate entries of the source, which are not always exact repeats. Identical values can stand only once.

Columns and labels:
[1] = Cloud point determination (solubility in ZnBr2 solution); conditions: for Solubility in ZnBr2 Cloud Point: 0.7 M quat in 2.5M Zinc Bromide water solution
Description: By “cloud point” is meant the cloud point of an aqueous solution containing 0.7 M complexing agent and 2.5 M zinc bromide.
A 0.7M quaternary ammonium bromide in 2.5M Zinc Bromide water solution was prepared. • 2. The solution was transferred to a jacketed flask with a stirring bar and temperature monitor. • 3. The solution was warmed to 15° C. above the expected cloud point. If necessary, any moisture or impurities were removed by filtration. • 4. The solution was stirred, with speed adjustment to about 250 rpm, while avoiding the formation of bubbles. • 5. The solution was cooled gradually (cooling rate of about 1° C./5 min). • 6. The sample was inspected carefully for signs of cloudiness, and the temperature at which cloudiness was observed was recorded to the nearest 0.1° C.

[2] = Measurement of free bromine in aqueous phase; assay type: physicochemical; conditions: stirred 24 hrs, top aqueous phase, wt %
Excerpt: The forward operation of a bromine-containing battery generally involves the conversion of elemental bromine to ionic bromine. The quat/Br2 complex results from an equilibrium reaction in which the Br2 is released from the complex as the concentration of free Br2 in the aqueous electrolyte drops during battery operation. In its fully charged state, the electrolyte solution inevitably contains some degree of uncomplexed bromine. A measure of a quat's ability to complex elemental bromine is the amount of elemental bromine left in solution when the complexation reaction proceeds to equilibrium. Such bromine is referred to as “free bromine.” Measurement of free bromine in aqueous phase is set forth in Example 1.
Two slightly different methods were used to prepare the electrolyte compositions, A) one containing 0.7M quat and B) the other containing 0.8M quat. In composition A, 2.0 moles of bromine was added to an aqueous solution containing 0.5 moles of zinc bromide and 0.7 moles of the quat. The two-phase mixture was stirred for 24 hrs. and then the phases were allowed to settle. The top aqueous phase was sampled for free bromine measurement. In composition B, 1.44 moles of bromine was added to an aqueous solution containing 0.5 moles of zinc bromide, 0.4 moles of zinc chloride and 0.8 moles of the quat. The top aqueous phase obtained after stirring for 24 hrs. was used for free bromine measurement.
A 250-ml Erlenmeyer flask was charged with 50 ml of deionized water and weighed (A). A sample of the clear aqueous phase was passed through glass wool to remove any suspended organic phase and then added to the Erlenmeyer flask. The flask was weighed again (B) and the difference in weight (B-A) was noted as the weight of the sample. About 20 ml of 20% potassium iodide solution followed by about 5 ml of starch solution was added to the flask. The resulting dark mixture was titrated against 0.02N sodium thiosulfate solution. The end-point was the disappearance of purple color. Free bromine (wt %) was calculated in the following manner:
Wt % free Br2=Volume (ml) of sodium Thiosulfate×Normality of Sodium thisosulfate/Sample Weight.

[3] = Free bromine in electrolyte with chloroquat or bromoquat (Example 8); assay type: physicochemical; conditions: 0.84 M zinc bromide, 0.8 M quat, 1.44 M bromine; stirred for 24 hrs at 35° C.
Description: Chloride ions are added to the electrolyte in amounts sufficient to reduce the amount of free bromine present and increase the electrolyte conductivity during charging of the cell. Chloride ions in the electrolyte may come from zinc chloride or quaternary ammonium chloride complexing agent.
Experiment 1 of Example 8: An aqueous electrolyte system was prepared having 0.84 M zinc bromide, 0.8 NI chloroquat (N-methyl, N-butyl pyrrolidinium chloride) and 1.44 M bromine. After the sample was stirred for 24 hrs at 35° C., the amount of free bromine present in the electrolyte was 0.26%.
Experiment 2 of Example 8: An aqueous electrolyte system was prepared having 0.84 M zinc bromide, 0.8 M bromoquat (N-methyl, N-butyl pyrrolidinium bromide) and 1.44 NI bromine. After the sample was stirred for 24 hrs at 35° C., the amount of free bromine present in the electrolyte was 0.25%.

[4] = 0.7 M quat (composition A: 0.5 moles zinc bromide, 2.0 moles bromine)
[5] = 0.8 M quat (composition B: 0.5 moles zinc bromide, 0.4 moles zinc chloride, 1.44 moles bromine)

Structure (SMILES) | Free Br2 [2, 4] | Solubility in ZnBr2 Cloud Point [1] | other results
CCC[N+](C)(C)CC.[Br-] [DMEP, dimethylethylpropyl ammonium bromide, reference compound] | – | – | cloud point ([1]; solution 0.7M in DMEP and 2.5M in ZnBr2): about 23.2 °C
CC[N+](C)(CC)CCOC.[Br-] [Compound 4, diethylmethyl-(2-methoxyethyl)ammonium bromide] | 0.7 M 0.70% | – | –
CCCC[N+]1(C)CCCC1.[Cl-] [chloroquat, N-methyl, N-butyl pyrrolidinium chloride] | – | – | amount of free bromine present in the electrolyte [3]: 0.26%
CCC[N+](CC)(CC)CC.[Br-] [Compound 5, triethylpropylammonium bromide] | 0.089% and 0.7 M 0.089% | 0.7 M, 41.2 C. | –
CCCC[N+]1(C)CCCC1.[Br-] [bromoquat, N-methyl, N-butyl pyrrolidinium bromide] | – | – | amount of free bromine present in the electrolyte [3]: 0.25%
CC[N+](C)(C)CCCC[N+](C)(C)CC.[Br-].[Br-] [Compound 15, Dimethylethyl Gemini Quat Bromide with Butyl Linkage] | 0.59% and 0.7 M 0.59% | 0.7 M, 89.2 C. | –
CCCC[N+](C)(C)CCOC.[Br-] [Compound 1, Dimethylbutylether Quat Bromide] | 0.7 M 0.28% | 0.7 M, 29 C. | –
CC[N+](CC)(CC)CCOC.[Br-] [Compound 2, (2-methoxyethyl)-triethylammonium bromide] | 0.658% and 0.7 M 0.658% | – | Free Br2 [2, 5]: 0.467% and 0.8 M 0.467%
CC[N+](C)(C)CCOCC[N+](C)(C)CC.[Br-].[Br-] [Compound 14, Dimethylethyl Gemini Quat Bromide with Diethylether Linkage] | 0.71% and 0.7 M 0.71% | 0.7 M, 48.2 C. | –

Continued, in another order:

Free Br2 [2, 4] | Solubility in ZnBr2 Cloud Point [1] | Structure (SMILES) | other results
– | 0.7 M, 11.9 C. | CC[N+]1(CC)CCCCC1.[Br-] [Compound 9, Diethyl Piperidinium Bromide] | Free Br2 [2, 5]: 0.26% and 0.8 M 0.26%
– | 0.7 M, 45.8 C. | CCC[N+]1(CC)CCCCC1 [Compound 10, EthyPropyl Piperidinium Bromide] | Free Br2 [2, 5]: 0.026% and 0.8 M 0.026%
